Data as given in patent publication US20260294864A1, “PHARMACEUTICAL COMPOSITION FOR THE TREATMENT AND PREVENTION OF HPV” (NP1 SRL, priority 2022, published 2026).

Experiments:
[1] = system: HeLa cells; experiment: Anti-clonogenic activity on HeLa cells (plating efficiency assay / live cell imaging); type: cell-based, human; details: for Anti-clonal effect: isolated, FIG. 1; for anti-clonal effect at concentrations above CID50: higher concentrations than CID50, HeLa
Description: Panel C and D: diagrammatic topographical maps of treatments and growth conditions on plates A and B respectively.
Panel A. Hela cells were challenged with serial twofold dilutions of 50 μM Luteolin (in columns 1-6) and 100 μM Galangin (columns 7-10). Hela control untreated cells in columns 11-12.
(§1) A total of 6 cell lines, outlined in Table 3, were used for this study. The cell lines were obtained from Research Centres of cell biology in Italy, United Kingdom and Germany. This research raised no ethical concern being based on entirely in vitro experiments using no patients' derived information or material. In compliance with National and International ethical rules, no informed consent is needed.
(§2) HeLa cells are the oldest continuous cell lines and were originally derived from a HPV18 positive metastatic cervical carcinoma (Scherer W F et al 1953). Siha cells are an epithelioid like cell line derived from a HPV16-positive invasive cervical squamous carcinoma (Friedel F et al 1970). Ca-Ski cells are a line harboring multiple copy of transcriptionally active HPV16 genomes (Baker C C et al 1984). Both Hela and Siha were a kind gift of prof MS Campo, The Beatson Institute for Cancer Research, Glasgow, Scotland. These two cell lines because of their versatility and ease of use were used for most of experiments reported. Ca-Ski cells were obtained through the courtesy of prof. Matthias Durst, at the Deutsch Krebsforschungzentrum—Heidelberg, FRG. These cells used together with Siha provide a model for the genetic instability and variability of cervical cancers. HK-168 is an immortalized, non-tumorigenic, continuous cell line derived from human skin keratinocytes in vitro transformed with whole HPV16 genome (De Marco F et al 2007). This cell line is reputed to recapitulate le biological features of transformed dysplastic cells and was used in preliminary experiments to set the experimental dosages and conditions. The ME-180 cells are a cell line harboring a few, transcriptionally active, copies of HPV68 and provide an in vitro model for dysplastic/neoplastic lesions induced by HPV with Intermediate oncogenic Risk (Yee C C et al 1985). The HaCaT cells, derived from a solar skin lesion by Petra Boukamp et al (1988) are here used as an in vitro equivalent of Ultra-Violet induced pre-neoplastic epithelial cells to rule out possible direct toxic effects of polyphenols. Both HaCaT and ME-180, were kindly donated by Prof. Matthias Durst. Hela, Siha, Ca-Ski, ME-180 and HaCaT were all grown in high glucose DMEM supplemented with 10% fetal calf serum (FCS). The HK-168 cells, which retained the ability to terminally differentiate under high Ca^2+ and FCS concentrations, were grown in K-SFM, a chemically defined medium supplemented with human EGF and bovine pituitary extract (ThermoFisher Scientific, Life Technologies, Monza—MI). Each cell line was sub-cultured twice a week at the appropriate split ratio according to the specific proliferative index. In no case antibiotics or antimycotics were added to the culture media. For the present study, all cell lines were retrieved from an in-house cell archive facility.
The anti-clonogenic activity was evaluated both by the current standard qualitative plating efficiency assay and by quantitative live cell imaging analysis ([…] S3 Live Cell Analysis Imaging System—Sartorius Welwyn Garden City, Hertfordshire, UK).

[2] = system: HPV transformed cells; experiment: Anti-clonal effect on HPV transformed cells (cell line not stated); type: cell-based, human; details: for IC50: Homo sapiens, minimal concentration reducing 50% of CFU of treated versus control, read-out: CID50 (50% clonal inhibitory dose), isolated polyphenols; for IC50 / IRR (inhibitory relative rate) / anticlonogenic / anti-clonal effect: isolated compound; for IRR (inhibitory relative rate): reverse ratio of CID50 to the reference CID50 of Quercetin (=1)
Description: The inhibitory relative rate (IRR) (fourth column) provides an efficacy ranking of molecules.
The anti-clonogenic activity was evaluated both by the current standard qualitative plating efficiency assay and by quantitative live cell imaging analysis (INCUCYTE S3 Live Cell Analysis Imaging System—Sartorius Welwyn Garden City, Hertfordshire, UK). For qualitative plating efficiency assay cells were seeded at ‘clonal’ density (i.e., 0.5 cell/mm^2) either in medium containing the testing molecules or with plain medium and incubated without any further manipulation. After 9-14 days, according to the cell line specific proliferative index, the cultures were decanted and stained with 0.2% CV/methanol for 5 min at room temperature. All conditions were tested in triplicates in a 6-well culture plate. The anti-clonogenic activity of the treatments was evaluated using the colony forming units (CFU) of treated versus control cultures. The minimal concentration which could reduce 50% of the CFU of treated versus control culture was defined as colony-forming Inhibitory concentration (CID50). For quantitative evaluation cells were seeded in 96-well microplates at the above density and condition and allowed to grow the subsequent 8-day incubation in the INCUCYTE S3 Imaging System. Images were acquired at 12-hours intervals and colony formation and percentage of growth area covered (confluency) were then monitored through automated image analysis. The analysis parameters were as follows: segmentation adjustment=0.4; hole fill <5,000 μm^2; adjusted pixel=−2.

[3] = system: Siha cells; experiment: Antiproliferative effect on Siha cells, live cell analysis; type: cell-based, human; details: Siha 1000 cells/well; for antiproliferative effect: 50 μM, FIG. 2; for inhibition at 50 µM: Homo sapiens, FIG. 2, read-out: suppression of proliferation
Description: FIG. 2: live cell analysis of RNPs antiproliferative effect. Siha cells were seeded at 1000 cells/well in a 96 well plate and allowed to adhere overnight. The plate was then washed twice with PBS and replenished with 100 microliter/well fresh medium plus 50 μM of each compound. Images were taken every 12 hours; Growth curves were drawn plotting the percentage of confluence versus time. […] In fact, their growth curves outline a single spindle completely overlapping and masking the one of control untreated cells. Conversely, a distinct anti-proliferative effect is evident in panel B- where the growth curves of RNP 9 Kaempferol (solid squares), RNP 12 Luteolin (solid diamonds), RNP 16 Apigenin (solid circles) and control untreated cells (solid stars) are depicted. […] Each point represents the mean of six independent replicas. Bar width represents the Standard Deviation (SD). Consistent results were also obtained by HeLa and ME-180 cells
(§3) For antiproliferative effect cells were seeded in 96-well microplates at 1000 cells/per well (i.e.: 30 cell/mm^2), a density allowing exponential growth rate for the subsequent 8-day incubation. After overnight adhesion cell monolayers were washed and replenished with fresh media with different testing molecules, plain medium served as cell growth control.
(§4) Cell growth was then monitored by automated INCUCTE S3 imaging Systems. Images were acquired at 12-hours intervals. The analysis parameters were as follows: segmentation adjustment=0.9; hole fill <7,000 μm^2; adjusted pixel=0.
Data for growth curves, anti-clonal and Antiproliferative assays were obtained from at least three independent experiments. Each data point of quantitative anti-proliferative or anti-clonal experiments represents the mean (±SD) of eight independent replicates. Data were analyzed and plotted using Prism 6.0 software (GraphPad Software, San Diego, CA).

[4] = system: Siha cells; experiment: Anti-clonogenic activity on SiHa cells (plating efficiency assay / live cell imaging); type: cell-based, human; details: for clonal efficiency versus control untreated cells: 12.5 μM, Siha, FIG. 4; for clonal efficiency versus control untreated cells / end-point anti-clonal effect versus control untreated cells: alone; for end-point anti-clonal effect versus control untreated cells / inhibition at 25 µM: SiHa; for end-point anti-clonal effect versus control untreated cells: FIG. 6-8; for inhibition at 25 µM: Homo sapiens, single compound, 24 hours treatment then wash-out, FIG. 12, read-out: clonal inhibition
Description: In this experiment Kaempferol and Apigenin were administered to Siha cells at decremental concentrations, either in combination or alone, as shown in the topographical map (in panel C). […] Histograms in Panel B depict the number of colonies per well as evaluated by visual inspection and count.
The Histograms in Panel B depict the number of colonies per well as evaluated by visual inspection and count. • In Panel C a topographical map of plate treatments. Each condition was assayed in duplicate.
Kaempferol, Galangin, Luteolin and their combination were administered to SiHa cells at the concentrations of 25 μM each and of 12,5/12,5/6,25 μM for their combination. Treatments were allowed to stay on cells either for 2 or 4/8/16/24 hours. After that, treatments were washed out, cells washed two times with PBS, replenished with fresh medium and the anti-clonal effect was then monitored by live cell image analysis.
as §1, §2

[5] = system: PC3 prostate cancer cells; details: PC3 cells (Lansky E P et al 2005); cited from earlier work
[6] = system: HPV transformed cells; experiment: Antiproliferative effect on HPV transformed cells (cell line not stated); type: cell-based, human; details: summary statement, isolated compound
Description: as §3, §4

[7] = system: gastric cancer cells; details: wound-healing and Boyden Chamber assays (Ho H H et al 2010); cited from earlier work
[8] = system: glioma cells; details: wound-healing and Boyden Chamber assays (Lu J et al 2010); cited from earlier work

Row | Structure (SMILES) | Anti-clonal effect ([1]; 50 μM, HeLa) | IC50 [2] [µM] | IRR (inhibitory relative rate) [2] | anticlonogenic / anti-clonal effect ([2]; summary statement) | antiproliferative effect [3] | inhibition at 50 µM [3] [%] | clonal efficiency versus control untreated cells [4] | end-point anti-clonal effect versus control untreated cells ([4]; 25.0 μM) | antiproliferative effect [6] | anti-clonal effect at concentrations above CID50 ([1]; FIG. 3) | inhibition at 25 µM [4] [%] | other results
1 | O=c1cc(-c2ccc(O)cc2)oc2cc(O)cc(O)c12 [Apigenin] | almost complete suppression of clonal activity | 25 | 2 | fair anti-clonal effect, although milder | distinct, although milder effect | ~20 | no difference to control untreated cells | no difference to control untreated cells |  |  |  | 
2 | O=C(O)/C=C/c1ccc(O)c(O)c1 [Caffeic acid] | devoid of any significant anticlonogenic effect |  |  | devoid of any direct activity |  |  |  |  |  |  |  | clonal inhibition in combination with Apigenin ([1]; 50 μM combined with Apigenin 25 μM, HeLa, FIG. 9-11): almost complete clonal inhibition; clonal inhibition in combination with Galangin ([1]; 50 μM combined with Galangin 12.5 μM, HeLa, FIG. 9-10): almost complete clonal inhibition; end point clonal assay, clonal inhibition alone ([1]; 50 μM, administered alone, HeLa, FIG. 9-11): neither of them induced any effect; synergistic effect with Galangine and Apigenin ([1]; in association, HeLa, FIG. 9): synergistic effect; clonal inhibition in combination ([2]; combined with Galangin or Quercetin, summary statement): a certain grade of clonal inhibition; anticlonogenic / anti-clonal effect ([2]; summary statement, listed as Caffeic): devoid of. any direct anticlonogenic activity; reduction of invasiveness [5]: 50%
3 | O=c1c(O)c(-c2ccccc2)oc2cc(O)cc(O)c12 [Galangin] | almost complete suppression of clonal activity | 25 | 2 | sharp anticlonogenic and antiproliferative effect |  |  |  | no difference to control untreated cells | sharp anticlonogenic and antiproliferative effect | completely suppressive | ~50 | 
4 | O=C(O)c1cc(O)c(O)c(O)c1 [Gallic acid] |  |  |  |  |  |  |  |  |  |  |  | migration of gastric cancer cells [7]: reduce the migration; migration of glioma cells [8]: reduce the migration
5 | O=c1c(O)c(-c2ccc(O)cc2)oc2cc(O)cc(O)c12 [Kaempferol] | almost complete suppression of clonal activity | 25 | 2 | sharp anticlonogenic and antiproliferative effect | distinct, although milder effect | ~40 | no difference to control untreated cells |  | sharp anticlonogenic and antiproliferative effect |  | ~50 | 
6 | O=c1cc(-c2ccc(O)c(O)c2)oc2cc(O)cc(O)c12 [Luteolin] | almost complete suppression of clonal activity | 6.25 | 8 | sharp anticlonogenic and antiproliferative effect | almost complete suppression of proliferation |  |  |  | sharp anticlonogenic and antiproliferative effect | completely suppressive | ~50 | IC50 ([1]; Homo sapiens, HeLa, serial twofold dilutions (Luteolin from 50 μM, Galangin from 100 μM), live cell image analysis, FIG. 3, read-out: CID50 (50% clonal inhibitory dose)): 6.25 µM; inhibition at up to 50 µM ([1]; Homo sapiens, wells D:1-6, serial twofold dilutions of 50 μM, HeLa, FIG. 3, read-out: anti-clonal titration, inhibition in wells D:1-6): ~50%; anti-clonal titration, inhibition in wells C:1-6 ([1]; wells C:1-6, serial twofold dilutions of 50 μM, HeLa, FIG. 3): almost complete inhibition; antiproliferative effect ([3]; listed as luteolin): sharp antiproliferative effect; end-point anti-clonal effect versus control untreated cells ([4]; 6.25 μM): no difference to control untreated cells
